Starred links: 1 amine or outer side, 2 acyl side, 3 side chain; linkers in the order of their positions; H or OH if unused. Non-standard residues stand in square brackets, D forms with d. Residues, ends and D or L forms follow the SMILES beside them. dPro(4R-(4-pyridylmethyl)) = O=C(O)[C@H]1C[C@@H](Cc2ccncc2)CN1; Trp(βS-Me,4-F) = C[C@@H](c1c[nH]c2cccc(F)c12)[C@H](N)C(=O)O; 3Aminoazetidine3carboxyl = O=C(C1(N[*:1])CN([*:3])C1)[*:2]; Bip(4'-COOH) = N[C@@H](Cc1ccc(-c2ccc(C(=O)O)cc2)cc1)C(=O)O; X21 = O=C(O)c1ccc(-c2ccc(C[C@H](N[*:1])C(=O)[*:2])cn2)cc1; dPro(4R-Bzl(4-F)) = O=C(O)[C@H]1C[C@@H](Cc2ccc(F)cc2)CN1; X14 = O=C([C@H]1[C@@H](Cc2ccccc2)CCN1[*:1])[*:2]; Ala(morpholin-4-yl) = N[C@@H](CN1CCOCC1)C(=O)O; Ala(pyrimidin-5-yl) = N[C@@H](Cc1cncnc1)C(=O)O; Phe(4-COOH) = N[C@@H](Cc1ccc(C(=O)O)cc1)C(=O)O; Pro(cis-4-F) = O=C(O)[C@@H]1C[C@H](F)CN1; 4Pal = N[C@@H](Cc1ccncc1)C(=O)O; d(αMeS) = C[C@@](N)(CO)C(=O)O; αMeS = C[C@](N)(CO)C(=O)O; Dab = NCC[C@H](N)C(=O)O; Aib = CC(C)(N)C(=O)O
Target: T1, IL-1β (Homo sapiens, UniProt P01584)
T1 construct: purchased BioLegend 579404
Assay: IL-6 assay in MRC5 cells: inhibition of IL-1β induced IL-6 secretion (AlphaLISA)
Format: cell-based
Settings: not given
Protocol: Procedure for IL-6 Assay in MRC5 Cells
The inhibition of IL-1β induced IL-6 secretion was evaluated in MRC5 cells. Recombinant human IL-1β (BioLegend 579404) at 2λ EC80 concentration was prepared in seeding medium. EMEM (ATCC 30-2003) with 0.025% BSA (Sigma A9576), 1×penicillin/streptomycin (Gibco 15070-063), 1×NEAA (Gibco 11140-050), 1×GlutaMax (Gibco 35050-061), and 1×sodium pyruvate (Gibco 11360-070), 20 μL of IL-1β was added to a 384-well collagen-coated plate (Corning 354664) and pre-incubated at ambient temperature for 1 hour with 200 nL of compound dispensed using an ECHO 555 liquid handler. Human lung fibroblast MRC5 cells (ATCC CCL-171) were added at a density of 3000 cells/20 μL per well. The cells were prepared by passaging three times in growth medium, EMEM (ATCC 30-2003) with 10% fetal bovine serum (Gibco 16140-071), 1×penicillin/streptomycin (Gibco 15070-063), 1×NEAA (Gibco 11140-050), 1×GlutaMax (Gibco 35050-061), and 1×sodium pyruvate (Gibco 11360-070) in collagen-coated T175 flasks (Greiner 661950) and harvested in seeding medium after 5 minutes of 0.25% trypsin-EDTA (Gibco 25200-056) digestion. The 384-well collagen-coated plate, containing a final volume of 40 μL, was incubated at 37° C., 5% CO2 overnight. 5 μL of the conditioned medium was transferred to a 384-well AlphaLISA plate (PerkinElmer 6005350) for detection of IL-6 using the human AlphaLISA IL-6 kit (PerkinElmer AL223F) as per the manufacturer's protocol. 20 μL of the acceptor bead/biotinylated antibody mix was added to the 384-well AlphaLISA plate and incubated for 1 hour at ambient temperature. The donor bead mix was protected from light and 25 μL was added to the plate and incubated for 30 minutes at ambient temperature. The AlphaLISA plate was read on an EnVision multimode plate reader (Perkin Elmer model 2104) using the AlphaScreen setting (laser exc at 680 nm and emis at […]). Dose response curves and IC50 values were analyzed using a 4-parameter logistic equation in Spotfire software (Tibco, Palo Alto, CA).

T1 sequence (P01584 117-269): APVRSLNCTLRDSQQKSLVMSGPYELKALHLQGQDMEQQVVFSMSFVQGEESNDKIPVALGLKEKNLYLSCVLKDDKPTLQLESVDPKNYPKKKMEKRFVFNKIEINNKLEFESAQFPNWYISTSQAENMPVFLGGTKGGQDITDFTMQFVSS

**Q.** With `C[C@@H](c1c[nH]c2cccc(F)c12)[C@@H]1NC(=O)[C@@H]2C[C@H](F)CN2C(=O)CNC(=O)[C@H](Cc2ccc(C(=O)O)cc2)NC(=O)[C@H](Cc2ccncc2)NC(=O)[C@H](Cc2ccc(-c3ccc(C(=O)O)cc3)cc2)NC(=O)[C@H]2C[C@@H](Cc3ccc(F)cc3)CN2C(=O)CNC(=O)[C@H](CCN)NC(=O)[C@H](CCC(N)=O)NC(=O)[C@H](Cc2cncnc2)NC(=O)C(C)(C)NC(=O)[C@H](Cc2c[nH]c3ccccc23)NC(=O)[C@H](CCC(=O)O)NC(=O)[C@](C)(CO)NC1=O` [Example 22] (cyclo([4Pal][Phe(4-COOH)]G[Pro(cis-4-F)][Trp(βS-Me,4-F)][αMeS]EW[Aib][Ala(pyrimidin-5-yl)]Q[Dab]G[dPro(4R-Bzl(4-F))][Bip(4'-COOH)])) as the compound, how does the IC50 read?
**A.** 0.027 nM

Same assay, conditions: inhibition of IL-1β induced IL-6 secretion in MRC5 cells; read-out: MRC5 IC50

**Q.** How did the IC50 turn out when `C[C@@H](c1c[nH]c2cccc(F)c12)[C@@H]1NC(=O)[C@@H]2C[C@H](F)CN2C(=O)CNC(=O)[C@H](Cc2ccc(C(=O)O)cc2)NC(=O)[C@H](Cc2ccncc2)NC(=O)[C@H](Cc2ccc(-c3ccc(C(=O)O)cc3)cc2)NC(=O)[C@H]2C[C@@H](Cc3ccncc3)CN2C(=O)CNC(=O)[C@H](CCN)NC(=O)[C@H](CCC(N)=O)NC(=O)[C@H](Cc2cncnc2)NC(=O)C(C)(C)NC(=O)[C@H](Cc2c[nH]c3ccccc23)NC(=O)[C@H](CCC(=O)O)NC(=O)C(C)(C)NC1=O` [Example 14] (cyclo([Bip(4'-COOH)][4Pal][Phe(4-COOH)]G[Pro(cis-4-F)][Trp(βS-Me,4-F)][Aib]EW[Aib][Ala(pyrimidin-5-yl)]Q[Dab]G[dPro(4R-(4-pyridylmethyl))])) was run?
**A.** 0.035 nM

**Q.** How did the IC50 turn out when `C[C@@H](c1c[nH]c2cccc(F)c12)[C@@H]1NC(=O)[C@@H]2C[C@H](F)CN2C(=O)CNC(=O)[C@H](Cc2ccc(C(=O)O)cc2)NC(=O)[C@H](Cc2ccncc2)NC(=O)[C@H](Cc2ccc(-c3ccc(C(=O)O)cc3)cc2)NC(=O)[C@H]2C[C@@H](Cc3ccncc3)CN2C(=O)CNC(=O)[C@H](CCN)NC(=O)[C@H](CCC(N)=O)NC(=O)[C@H](Cc2ccncc2)NC(=O)C(C)(C)NC(=O)[C@H](Cc2c[nH]c3ccccc23)NC(=O)[C@H](CCC(=O)O)NC(=O)C(C)(C)NC1=O` [Example 15] (cyclo([Bip(4'-COOH)][4Pal][Phe(4-COOH)]G[Pro(cis-4-F)][Trp(βS-Me,4-F)][Aib]EW[Aib][4Pal]Q[Dab]G[dPro(4R-(4-pyridylmethyl))])) was run?
**A.** 0.035 nM

**Q.** Which IC50 does the source give for `C[C@@H](c1c[nH]c2cccc(F)c12)[C@@H]1NC(=O)[C@@H]2C[C@H](F)CN2C(=O)CNC(=O)[C@H](Cc2ccc(C(=O)O)cc2)NC(=O)[C@H](Cc2ccncc2)NC(=O)[C@H](Cc2ccc(-c3ccc(C(=O)O)cc3)cc2)NC(=O)[C@H]2C[C@@H](Cc3ccc(F)cc3)CN2C(=O)CNC(=O)[C@H](CCN)NC(=O)[C@H](CCC(N)=O)NC(=O)[C@H](Cc2cncnc2)NC(=O)C(C)(C)NC(=O)[C@H](Cc2c[nH]c3ccccc23)NC(=O)[C@H](CC(=O)O)NC(=O)C(C)(C)NC1=O` [Example 17] (cyclo([Bip(4'-COOH)][4Pal][Phe(4-COOH)]G[Pro(cis-4-F)][Trp(βS-Me,4-F)][Aib]DW[Aib][Ala(pyrimidin-5-yl)]Q[Dab]G[dPro(4R-Bzl(4-F))])) here?
**A.** 0.029 nM

**Q.** `C[C@@H](c1c[nH]c2cccc(F)c12)[C@@H]1NC(=O)[C@@H]2C[C@H](F)CN2C(=O)CNC(=O)[C@H](Cc2ccc(C(=O)O)cc2)NC(=O)[C@H](Cc2ccncc2)NC(=O)[C@H](Cc2ccc(-c3ccc(C(=O)O)cc3)cc2)NC(=O)[C@H]2C[C@@H](Cc3ccc(F)cc3)CN2C(=O)CNC(=O)[C@H](CCN)NC(=O)[C@H](CCC(N)=O)NC(=O)[C@H](Cc2cncnc2)NC(=O)[C@](C)(CO)NC(=O)[C@H](Cc2c[nH]c3ccccc23)NC(=O)[C@H](CCC(=O)O)NC(=O)C(C)(C)NC1=O` [Example 18] (cyclo([Bip(4'-COOH)][4Pal][Phe(4-COOH)]G[Pro(cis-4-F)][Trp(βS-Me,4-F)][Aib]EW[αMeS][Ala(pyrimidin-5-yl)]Q[Dab]G[dPro(4R-Bzl(4-F))])) was tested. Which IC50 did it give?
**A.** 0.027 nM

**Q.** Which IC50 does the source give for `C[C@@H](c1c[nH]c2cccc(F)c12)[C@@H]1NC(=O)[C@@H]2C[C@H](F)CN2C(=O)CNC(=O)[C@H](Cc2ccc(C(=O)O)cc2)NC(=O)[C@H](Cc2ccncc2)NC(=O)[C@H](Cc2ccc(-c3ccc(C(=O)O)cc3)cc2)NC(=O)[C@H]2C[C@@H](Cc3ccc(F)cc3)CN2C(=O)CNC(=O)[C@H](CCN)NC(=O)[C@H](CCC(N)=O)NC(=O)[C@H](Cc2cncnc2)NC(=O)C(C)(C)NC(=O)[C@H](Cc2c[nH]c3ccccc23)NC(=O)[C@H](CCC(=O)O)NC(=O)[C@@](C)(CO)NC1=O` [Example 19] (cyclo([Bip(4'-COOH)][4Pal][Phe(4-COOH)]G[Pro(cis-4-F)][Trp(βS-Me,4-F)][d(αMeS)]EW[Aib][Ala(pyrimidin-5-yl)]Q[Dab]G[dPro(4R-Bzl(4-F))])) here?
**A.** 0.021 nM

**Q.** How did the IC50 turn out when `C[C@@H](c1c[nH]c2cccc(F)c12)[C@@H]1NC(=O)[C@@H]2C[C@H](F)CN2C(=O)CNC(=O)[C@H](Cc2ccc(C(=O)O)cc2)NC(=O)[C@H](Cc2ccncc2)NC(=O)[C@H](Cc2ccc(-c3ccc(C(=O)O)cc3)cc2)NC(=O)[C@H]2C[C@@H](Cc3ccc(F)cc3)CN2C(=O)CNC(=O)[C@H](CCN)NC(=O)[C@H](CCC(N)=O)NC(=O)[C@H](Cc2cncnc2)NC(=O)C2(CNC2)NC(=O)[C@H](Cc2c[nH]c3ccccc23)NC(=O)[C@H](CCC(=O)O)NC(=O)C(C)(C)NC1=O` [Example 21] (cyclo([Bip(4'-COOH)][4Pal][Phe(4-COOH)]G[Pro(cis-4-F)][Trp(βS-Me,4-F)][Aib]EW[3Aminoazetidine3carboxyl][Ala(pyrimidin-5-yl)]Q[Dab]G[dPro(4R-Bzl(4-F))])) was run?
**A.** 0.04 nM

**Q.** With `C[C@@H](c1c[nH]c2cccc(F)c12)[C@@H]1NC(=O)[C@@H]2C[C@H](F)CN2C(=O)CNC(=O)[C@H](Cc2ccc(C(=O)O)cc2)NC(=O)[C@H](Cc2ccncc2)NC(=O)[C@H](Cc2ccc(-c3ccc(C(=O)O)cc3)cc2)NC(=O)[C@H]2C[C@@H](Cc3ccc(F)cc3)CN2C(=O)CNC(=O)[C@H](CCN)NC(=O)[C@H](CCC(N)=O)NC(=O)[C@H](Cc2cncnc2)NC(=O)[C@@](C)(CO)NC(=O)[C@H](Cc2c[nH]c3ccccc23)NC(=O)[C@H](CCC(=O)O)NC(=O)C(C)(C)NC1=O` [Example 23] (cyclo([Bip(4'-COOH)][4Pal][Phe(4-COOH)]G[Pro(cis-4-F)][Trp(βS-Me,4-F)][Aib]EW[d(αMeS)][Ala(pyrimidin-5-yl)]Q[Dab]G[dPro(4R-Bzl(4-F))])) as the compound, how does the IC50 read?
**A.** 0.018 nM

**Q.** How did the IC50 turn out when `C[C@@H](c1c[nH]c2cccc(F)c12)[C@@H]1NC(=O)[C@@H]2C[C@H](F)CN2C(=O)CNC(=O)[C@H](Cc2ccc(C(=O)O)cc2)NC(=O)[C@H](Cc2ccncc2)NC(=O)[C@H](Cc2ccc(-c3ccc(C(=O)O)cc3)cc2)NC(=O)[C@H]2C[C@@H](Cc3ccc(F)cc3)CN2C(=O)CNC(=O)[C@H](CN2CCOCC2)NC(=O)[C@H](CCC(N)=O)NC(=O)[C@H](Cc2cncnc2)NC(=O)C(C)(C)NC(=O)[C@H](Cc2c[nH]c3ccccc23)NC(=O)[C@H](CCC(=O)O)NC(=O)C(C)(C)NC1=O` [Example 24] (cyclo([Bip(4'-COOH)][4Pal][Phe(4-COOH)]G[Pro(cis-4-F)][Trp(βS-Me,4-F)][Aib]EW[Aib][Ala(pyrimidin-5-yl)]Q[Ala(morpholin-4-yl)]G[dPro(4R-Bzl(4-F))])) was run?
**A.** 0.049 nM

**Q.** For `C[C@@H](c1c[nH]c2cccc(F)c12)[C@@H]1NC(=O)[C@@H]2C[C@H](F)CN2C(=O)CNC(=O)[C@H](Cc2ccc(C(=O)O)cc2)NC(=O)[C@H](Cc2ccncc2)NC(=O)[C@H](Cc2ccc(-c3ccc(C(=O)O)cc3)nc2)NC(=O)[C@H]2C[C@@H](Cc3ccc(F)cc3)CN2C(=O)CNC(=O)[C@H](CCN)NC(=O)[C@H](CCC(N)=O)NC(=O)[C@H](Cc2cncnc2)NC(=O)C(C)(C)NC(=O)[C@H](Cc2c[nH]c3ccccc23)NC(=O)[C@H](CCC(=O)O)NC(=O)C(C)(C)NC1=O` [Example 26] (cyclo([X21][4Pal][Phe(4-COOH)]G[Pro(cis-4-F)][Trp(βS-Me,4-F)][Aib]EW[Aib][Ala(pyrimidin-5-yl)]Q[Dab]G[dPro(4R-Bzl(4-F))])), which IC50 is on record?
**A.** 0.035 nM

**Q.** With `C[C@@H](c1c[nH]c2cccc(F)c12)[C@@H]1NC(=O)[C@@H]2C[C@H](F)CN2C(=O)CNC(=O)[C@H](Cc2ccc(C(=O)O)cc2)NC(=O)[C@H](Cc2ccncc2)NC(=O)[C@H](Cc2ccc(-c3ccc(C(=O)O)cc3)cc2)NC(=O)[C@H]2[C@@H](Cc3ccccc3)CCN2C(=O)CNC(=O)[C@H](CO)NC(=O)[C@H](CCC(N)=O)NC(=O)[C@H](Cc2cncnc2)NC(=O)C(C)(C)NC(=O)[C@H](Cc2c[nH]c3ccccc23)NC(=O)[C@H](CCC(=O)O)NC(=O)C(C)(C)NC1=O` [Example 28] (cyclo([Bip(4'-COOH)][4Pal][Phe(4-COOH)]G[Pro(cis-4-F)][Trp(βS-Me,4-F)][Aib]EW[Aib][Ala(pyrimidin-5-yl)]QSG[X14])) as the compound, how does the IC50 read?
**A.** 0.023 nM

From patent publication US20260242419A1, “A CYCLIC PEPTIDE FOR TRAPPING INTERLEUKIN-1 BETA” (Merck Sharp & Dohme LLC, priority 2023, published 2026)
